Experimental data from PMC10733197, “Utilization of Rosuvastatin and Endogenous Biomarkers in Evaluating the Impact of Ritlecitinib on BCRP, OATP1B1, and OAT3 Transporter Activity” (Pharmaceutical Research, 2023).
Read-outs that look alike come from different tables or passages of the source. Blank lines part the entries; values can stand above or below the compound they belong to.

Assays:
[1] = test system: OATP1B1; experiment: Plasma CP-I as endogenous biomarker of OATP1B1 in clinical DDI studies; type: in vivo, human; set-up: AUC24 / Cmax: unit not given beside the values; conditions: for AUC24 / Cmax: geometric mean (%CV)
Protocol: (§1) Blood and urine samples were collected at prespecified timepoints. Rosuvastatin plasma samples (~ 6 mL) were collected predose and at 0.5, 1, 2, 3, 4, 5, 6, 8, 10, 12, 16, 24, 36, 48, and 72 h postdose. CP-I and PDA plasma samples (~ 6 mL) were collected predose and at 0.5, 1, 2, 3, 4, 5, 6, 8, 10, 12, 16, and 24 h post rosuvastatin dosing. Rosuvastatin urine samples were collected at predose, 0–6 h, 6–12, 12–24, 24–48, and 48–72 h postdose. Each participant emptied their bladder just prior to dosing.
Quantification of CP-I was conducted by mass spectrometry according to King-Ahmad et al.. Plasma samples were spiked with stable label internal standard (^15N4-coproporphyrin I). CP-I was isolated through supported liquid extraction. The eluate was evaporated under a nitrogen stream at approximately 45 °C, and the remaining residue was reconstituted with 125 μL of water/acetonitrile/formic acid (750:250: 1, v/v/v). The final extract was analyzed via UPLC® with column switching and MS/MS detection using positive ion electrospray. A linear, 1/x^2 weighted, least-squares regression algorithm was used to quantitate sample concentrations.
(§2) The PK parameters for rosuvastatin, CP-I and PDA were calculated for each participant and each treatment using Pfizer’s internally validated electronic noncompartmental analysis software (eNCA) version 2.4.4. Samples below the lower limit of quantitation were set to zero for the PK analysis. Actual sample collection times were used for the PK analysis.
(§3) Natural log transformed area under the plasma concentration-time profile from time 0 extrapolated to infinity (AUCinf), maximum plasma concentration (Cmax), and apparent renal clearance (CLr) were analyzed using a mixed effect model with treatment as a fixed effect and participant as a random effect (SAS version 9.4; SAS Institute, Cary, NC, USA). Estimates of the adjusted mean differences (Test-Reference) and corresponding 90% CIs were obtained from the model. The adjusted mean difference and 90% CIs for the differences were exponentiated to provide estimates of the ratio of adjusted geometric means (Test/Reference) and 90% CIs for the ratios. Rosuvastatin alone was the reference treatment, while the rosuvastatin coadministered with ritlecitinib was the Test treatment.

[2] = test system: OATP1B1; conditions: plasma CP-I with coadministration of rifampicin vs rosuvastatin alone; cited from earlier work
[3] = cited from earlier work
[4] = test system: OAT1/3; conditions: cited from earlier work; for PDA AUC ratio Observed: ref 1 (Rodrigues AD 2023)
[5] = target: T1, OAT3 (Homo sapiens, UniProt Q8TCC7); conditions: estrone 3-sulfate 0.1 µM; HEK293; existing in vitro data; cited from earlier work
T1 construct: expressed in transfected cells; host or cells: HEK293
T1 sequence (Q8TCC7 1-542): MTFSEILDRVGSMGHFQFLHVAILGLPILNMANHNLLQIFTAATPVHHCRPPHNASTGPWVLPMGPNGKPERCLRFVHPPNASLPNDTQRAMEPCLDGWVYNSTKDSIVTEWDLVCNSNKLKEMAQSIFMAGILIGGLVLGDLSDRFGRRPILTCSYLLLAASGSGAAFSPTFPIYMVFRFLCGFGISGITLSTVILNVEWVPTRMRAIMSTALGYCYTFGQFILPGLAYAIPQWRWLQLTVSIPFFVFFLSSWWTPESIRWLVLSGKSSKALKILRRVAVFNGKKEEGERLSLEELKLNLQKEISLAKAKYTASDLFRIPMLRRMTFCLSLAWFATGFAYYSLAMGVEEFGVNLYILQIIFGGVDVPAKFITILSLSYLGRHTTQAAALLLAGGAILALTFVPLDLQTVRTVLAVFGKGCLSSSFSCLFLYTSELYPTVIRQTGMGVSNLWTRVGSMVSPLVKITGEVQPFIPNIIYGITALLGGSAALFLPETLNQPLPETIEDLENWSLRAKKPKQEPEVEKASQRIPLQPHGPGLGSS

[6] = target: T2, OAT1 (Homo sapiens, UniProt Q4U2R8); conditions: cited from earlier work
T2 sequence (Q4U2R8 1-563): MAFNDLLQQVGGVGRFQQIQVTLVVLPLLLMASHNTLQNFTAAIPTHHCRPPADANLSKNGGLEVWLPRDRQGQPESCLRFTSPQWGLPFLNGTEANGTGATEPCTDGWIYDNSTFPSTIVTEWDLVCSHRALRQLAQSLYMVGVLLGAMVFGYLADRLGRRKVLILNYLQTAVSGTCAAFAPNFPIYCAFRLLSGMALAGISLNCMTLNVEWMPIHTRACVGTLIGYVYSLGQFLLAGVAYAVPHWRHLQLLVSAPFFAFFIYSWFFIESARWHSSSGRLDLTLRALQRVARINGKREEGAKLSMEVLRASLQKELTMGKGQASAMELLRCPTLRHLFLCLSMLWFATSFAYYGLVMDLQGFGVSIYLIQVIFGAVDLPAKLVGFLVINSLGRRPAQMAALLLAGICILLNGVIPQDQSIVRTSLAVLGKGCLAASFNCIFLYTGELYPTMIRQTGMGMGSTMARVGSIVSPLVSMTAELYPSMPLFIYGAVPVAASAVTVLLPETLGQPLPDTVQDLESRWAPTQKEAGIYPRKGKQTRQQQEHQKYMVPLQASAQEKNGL

[7] = set-up: method as in PMID 14693307; conditions: cited from earlier work
[8] = clinical; conditions: human, in vivo, 10 mg
Protocol: Blood and urine samples were collected at prespecified timepoints. […] Each participant emptied their bladder just prior to dosing. Plasma rosuvastatin was measured using a validated UPLC-MS/MS assay, in compliance with Pfizer standard operating procedures. Samples were thawed at room temperature and vortexed. […] Samples were then placed in a methanol/ dry ice bath for 5 min. […] Dry residues were reconstituted with 200 μL of reconstitution solution (mobile phase A). After vortexing, all tubes were centrifuged at 3000 rpm for 5 min at 4 °C, and 150 μL of the reconstituted samples were transferred into the deep round well microplates and sealed by aluminum foil at 165 °C. […] Mobile phase A was Milli-Q Type Water/methanol, ammonium acetate 2 mM and mobile phase B was acetonitrile. The monitored ion transitions were m/z 483.3 → 258.2; […] The validated rosuvastatin concentration calibration range was 20 to 25000 pg/mL. Urine rosuvastatin was measured using a validated HPLC-MS/MS assay, in compliance with Pfizer standard operating procedures. […] Mobile phase A was Milli-Q® type water/methanol, ammonium acetate 2 mM and mobile phase B was acetonitrile. The monitored ion transitions were m/z 483.3 → 258.2; […] The validated rosuvastatin concentration calibration range was 5 to 2000 ng/mL. […] Samples below the lower limit of quantitation were set to zero for the PK analysis. Actual sample collection times were used for the PK analysis. Natural log transformed area under the plasma concentration-time profile from time 0 extrapolated to infinity (AUCinf), maximum plasma concentration (Cmax), and apparent renal clearance (CLr) were analyzed using a mixed effect model with treatment as a fixed effect and participant as a random effect (SAS version 9.4; SAS Institute, Cary, NC, USA). […] Rosuvastatin alone was the reference treatment, while the rosuvastatin coadministered with ritlecitinib was the Test treatment.

[9] = test system: OATP2B1; set-up: method as in PMID 27737931; conditions: rosuvastatin coadministered with ronacaleret, an OATP2B1 inhibitor; cited from earlier work
[10] = Safety and tolerability in the clinical DDI study
Protocol: This was a Phase 1, 2-period fixed-sequence, multiple-dose, open-label study of the effect of ritlecitinib on the pharmacokinetics and renal clearance of a single, oral dose of rosuvastatin in healthy participants (Fig. 1). The safety and tolerability of rosuvastatin when coadministered with ritlecitinib was also evaluated.
In Period 1 on Day 1, following an overnight fast of at least 10 h, participants received a single oral administration of rosuvastatin 10 mg tablet. Period 1 was immediately followed by Period 2 with no washout. In Period 2 (coadministration), participants received oral ritlecitinib 200 mg once daily (QD) under non-fasting conditions for 7 days. On the morning of Day 8, a single dose of rosuvastatin 10 mg tablet was administered orally within approximately 5 min after administration of a ritlecitinib 200 mg dose under fasting conditions. On Days 9 and 10, participants continued to receive oral ritlecitinib 200 mg QD under non-fasting conditions.

[11] = test system: OAT1/3; experiment: Plasma PDA as endogenous biomarker of OAT1/3 in clinical DDI studies; type: in vivo, human; conditions: for AUC24 / Cmax: geometric mean (%CV)
Protocol: as §1
Quantification of PDA was conducted by mass spectrometry according to Towner et al.. […] Mass spectrometry detection of the analytes were achieved using a SCIEX API QTrap 5500 mass spectrometry and a Turbo V electrospray ionization source in negative ion mode. Plasma samples were prepared by protein precipitation by spiking 50 μL of sample with 200 μL of 300 ng/mL 4-aminosalicylic acid internal standard. After vortexing/centrifugation, 200 μL of supernatant was transferred and 1 μL injections were analyzed. A 1/x^2 weighted linear regression was used to quantitate sample concentrations.
as §2, §3

[12] = test system: OCT1; set-up: method as in PMID 36807251; conditions: cited from earlier work
[13] = rosuvastatin 10 mg + ritlecitinib 200 mg QD
[14] = with vs without ritlecitinib 200 mg QD
[15] = rosuvastatin 10 mg single dose (without ritlecitinib) or ritlecitinib 200 mg QD, 12 healthy participants

- AUC24 [1, 13]: 8729 (21)
- Cmax [1, 13]: 418.8 (19)
- AUC24 ([1]; rosuvastatin 10 mg alone): 8915 (21)
- Cmax ([1]; rosuvastatin 10 mg alone): 427.1 (22)
- AUC24 % Ratio (Test/Reference) of Adjusted Geometric Means (90% CI) [1, 14]: 97.91 (92.24, 103.94) %
- Cmax % Ratio (Test/Reference) of Adjusted Geometric Means (90% CI) [1, 14]: 98.06 (93.13, 103.26) %
Compound: coproporphyrin I [CP-I]
- increase in exposure (AUC24) [2]: 4.0 fold

Compound: CCc1nc(N)nc(N)c1-c1ccc(Cl)cc1 [Pyrimethamine]
- Cmax,u ([3]; inhibitor dose 10 mg): 40 nM
- Cmax,u ([3]; inhibitor dose 25 mg): 110 nM
- Cmax,u ([3]; inhibitor dose 75 mg): 370 nM
- PDA AUC ratio Observed ([4]; inhibitor dose 10 mg): 0.7
- PDA AUC ratio Observed ([4]; inhibitor dose 25 mg): 0.6
- PDA AUC ratio Observed ([4]; inhibitor dose 75 mg): 0.6
- IC50 [5]: 16 µM
- IC50 [6]: 224 µM

- AUC(0-inf) [8]: 43.9 ng·h/mL
- CL renal [8]: 218 mL/min
- CL/F [8]: 228.0 (44) L/hr
- Cmax [8]: 4.5 ng/mL
- Tmax [8]: 4.01 h
- Vd/F [8]: 6020 L
- half-life [8]: 19.2 ± 7.02 h
Compound: CC(C)c1nc(N(C)S(C)(=O)=O)nc(-c2ccc(F)cc2)c1/C=C/[C@@H](O)C[C@@H](O)CC(=O)O [Rosuvastatin, rosuvastatin]
- excreted in urine [7]: ≤ 10%
- decrease in AUCinf exposure [9]: ~50%
- TEAEs of moderate severity ([10]; back pain, single dose of rosuvastatin 10 mg): 1
- number of treatment-emergent adverse events (TEAEs) [10, 15]: 4
- participants with TEAEs [10, 15]: 4
- TEAEs considered treatment-related by the investigator ([10]; rosuvastatin 10 mg single dose or ritlecitinib 200 mg QD): all of which were considered treatment-related

- AUC24 [11, 13]: 69.47 (33)
- Cmax [11, 13]: 3.765 (28)
- AUC24 ([11]; rosuvastatin 10 mg alone): 67.34 (30)
- Cmax ([11]; rosuvastatin 10 mg alone): 3.664 (29)
- AUC24 % Ratio (Test/Reference) of Adjusted Geometric Means (90% CI) [11, 14]: 103.16 (87.65, 121.42) %
- Cmax % Ratio (Test/Reference) of Adjusted Geometric Means (90% CI) [11, 14]: 102.76 (87.58, 120.58) %
Compound: Cc1ncc(CO)c(C(=O)O)c1O [PDA, pyridoxic acid]
- increase in plasma AUC ([4]; plasma PDA in the presence of probenecid): 3.1 fold

Compound: CNS(=O)(=O)Cc1ccc2[nH]cc(CCN(C)C)c2c1 [sumatriptan]
- increase in AUCinf ([12]; sumatriptan with ritlecitinib coadministration, due to OCT1 inhibition): 30%
- decrease in Cmax ([12]; sumatriptan with ritlecitinib coadministration): 13%
- exposure increase ([12]; sumatriptan, liver OCT1 inhibition by ritlecitinib and M2): up to 50%
